Patent publication US20090304692A1, “TRIAZINE COMPOUNDS AS PI3 KINASE AND MTOR INHIBITORS” (Wyeth, priority 2008, published 2009)
Like-named read-outs stand apart in the source and are kept apart here.

Legend:
Human mTOR (FLAG-TOR) = Human mTOR (FLAG-TOR) (Homo sapiens, UniProt P42345); assay: mTOR kinase assay (DELFIA format, purified enzyme); format: biochemical; conditions: read-out: IC50 mTOR
PI3K-α = PI3K-α (Homo sapiens, UniProt P42336); assay: PI3K-alpha fluorescence polarization assay; conditions: read-out: IC50 PI3Kα
PI3K-γ = PI3K-γ (Homo sapiens, UniProt P48736); assay: PI3K-gamma fluorescence polarization assay
[1] = test system: human prostate LNCap tumor cell line; assay: In vitro cell culture growth assay (MTS), LNCap; conditions: read-out: IC50 LNCap

Chain of Human mTOR (FLAG-TOR) (P42345 1360-2549 limits assumed): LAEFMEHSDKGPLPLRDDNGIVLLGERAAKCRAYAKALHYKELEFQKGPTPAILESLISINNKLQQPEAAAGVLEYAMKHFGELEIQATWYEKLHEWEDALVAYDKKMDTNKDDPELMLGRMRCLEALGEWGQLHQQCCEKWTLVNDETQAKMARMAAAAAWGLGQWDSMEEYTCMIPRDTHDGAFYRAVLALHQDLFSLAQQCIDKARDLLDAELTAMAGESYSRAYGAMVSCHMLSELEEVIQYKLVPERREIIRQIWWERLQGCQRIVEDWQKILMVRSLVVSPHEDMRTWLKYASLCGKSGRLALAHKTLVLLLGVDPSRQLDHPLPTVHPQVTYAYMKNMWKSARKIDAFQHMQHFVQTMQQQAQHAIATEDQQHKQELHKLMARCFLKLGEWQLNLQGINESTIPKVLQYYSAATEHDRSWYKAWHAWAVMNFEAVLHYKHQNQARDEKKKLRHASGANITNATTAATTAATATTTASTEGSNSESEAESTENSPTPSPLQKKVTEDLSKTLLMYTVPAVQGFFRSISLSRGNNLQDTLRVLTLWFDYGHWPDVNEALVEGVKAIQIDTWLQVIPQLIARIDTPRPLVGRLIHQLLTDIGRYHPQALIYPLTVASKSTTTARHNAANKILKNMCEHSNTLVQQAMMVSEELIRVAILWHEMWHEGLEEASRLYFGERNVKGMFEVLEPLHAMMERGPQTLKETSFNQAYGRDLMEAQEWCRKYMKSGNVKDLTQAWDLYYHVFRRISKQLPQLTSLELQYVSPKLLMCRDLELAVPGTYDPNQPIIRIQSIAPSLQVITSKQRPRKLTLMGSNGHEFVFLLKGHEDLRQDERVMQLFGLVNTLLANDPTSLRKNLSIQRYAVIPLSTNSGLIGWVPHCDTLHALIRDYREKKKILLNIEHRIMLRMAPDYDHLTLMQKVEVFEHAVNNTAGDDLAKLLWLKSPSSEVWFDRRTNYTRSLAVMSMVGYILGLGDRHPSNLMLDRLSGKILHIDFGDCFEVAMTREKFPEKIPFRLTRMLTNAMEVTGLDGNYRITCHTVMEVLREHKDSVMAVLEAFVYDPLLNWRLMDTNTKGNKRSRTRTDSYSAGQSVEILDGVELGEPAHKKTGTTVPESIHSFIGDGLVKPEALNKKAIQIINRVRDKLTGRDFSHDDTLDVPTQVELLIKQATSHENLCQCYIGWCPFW
Chain of PI3K-α (P42336 whole entry, species assumed): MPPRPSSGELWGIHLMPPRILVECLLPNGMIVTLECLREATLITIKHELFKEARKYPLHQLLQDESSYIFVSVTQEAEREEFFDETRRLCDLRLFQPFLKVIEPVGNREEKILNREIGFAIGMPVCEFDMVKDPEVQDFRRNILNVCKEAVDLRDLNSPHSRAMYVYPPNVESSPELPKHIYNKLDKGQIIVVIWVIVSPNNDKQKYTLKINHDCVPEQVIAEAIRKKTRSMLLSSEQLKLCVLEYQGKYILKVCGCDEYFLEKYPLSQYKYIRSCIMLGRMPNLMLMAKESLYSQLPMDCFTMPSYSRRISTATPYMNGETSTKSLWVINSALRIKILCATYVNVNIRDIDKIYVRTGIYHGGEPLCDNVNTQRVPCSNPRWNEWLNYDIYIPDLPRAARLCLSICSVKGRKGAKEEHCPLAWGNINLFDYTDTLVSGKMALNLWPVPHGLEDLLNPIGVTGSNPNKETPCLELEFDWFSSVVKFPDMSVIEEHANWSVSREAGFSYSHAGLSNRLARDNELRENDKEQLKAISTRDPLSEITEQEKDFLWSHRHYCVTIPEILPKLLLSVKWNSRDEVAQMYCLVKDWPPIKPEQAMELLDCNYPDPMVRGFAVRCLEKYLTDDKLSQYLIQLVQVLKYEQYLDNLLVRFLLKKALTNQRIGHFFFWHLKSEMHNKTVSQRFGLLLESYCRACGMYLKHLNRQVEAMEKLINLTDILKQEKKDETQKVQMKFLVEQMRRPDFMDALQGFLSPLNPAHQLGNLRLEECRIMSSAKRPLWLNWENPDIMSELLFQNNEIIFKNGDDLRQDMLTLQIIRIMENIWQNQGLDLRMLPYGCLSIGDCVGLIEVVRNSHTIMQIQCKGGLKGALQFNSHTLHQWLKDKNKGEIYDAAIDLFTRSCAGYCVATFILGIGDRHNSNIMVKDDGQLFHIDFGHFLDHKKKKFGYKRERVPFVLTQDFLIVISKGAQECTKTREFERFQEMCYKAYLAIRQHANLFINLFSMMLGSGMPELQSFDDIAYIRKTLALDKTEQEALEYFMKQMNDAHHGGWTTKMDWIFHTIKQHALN
Chain of PI3K-α (P27986 whole entry partner, species assumed): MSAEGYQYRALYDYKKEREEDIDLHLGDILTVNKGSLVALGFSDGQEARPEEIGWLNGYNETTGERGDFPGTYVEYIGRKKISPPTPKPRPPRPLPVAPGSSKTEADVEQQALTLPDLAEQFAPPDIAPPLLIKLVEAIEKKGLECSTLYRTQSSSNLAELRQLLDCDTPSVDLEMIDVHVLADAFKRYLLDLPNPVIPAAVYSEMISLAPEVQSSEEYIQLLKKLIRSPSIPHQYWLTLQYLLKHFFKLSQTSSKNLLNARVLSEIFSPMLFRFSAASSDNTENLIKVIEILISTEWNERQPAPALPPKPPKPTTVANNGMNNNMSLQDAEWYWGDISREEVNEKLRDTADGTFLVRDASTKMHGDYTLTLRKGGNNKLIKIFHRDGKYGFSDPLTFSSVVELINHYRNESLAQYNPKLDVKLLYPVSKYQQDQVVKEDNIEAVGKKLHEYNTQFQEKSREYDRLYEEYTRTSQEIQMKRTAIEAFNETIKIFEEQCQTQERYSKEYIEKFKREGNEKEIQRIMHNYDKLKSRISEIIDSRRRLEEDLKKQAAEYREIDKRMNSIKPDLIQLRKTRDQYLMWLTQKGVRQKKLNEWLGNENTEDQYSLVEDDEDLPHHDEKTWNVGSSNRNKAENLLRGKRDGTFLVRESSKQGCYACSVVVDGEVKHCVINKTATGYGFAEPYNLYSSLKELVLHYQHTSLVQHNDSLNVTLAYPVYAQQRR
Chain of PI3K-γ (P48736 whole entry, species assumed): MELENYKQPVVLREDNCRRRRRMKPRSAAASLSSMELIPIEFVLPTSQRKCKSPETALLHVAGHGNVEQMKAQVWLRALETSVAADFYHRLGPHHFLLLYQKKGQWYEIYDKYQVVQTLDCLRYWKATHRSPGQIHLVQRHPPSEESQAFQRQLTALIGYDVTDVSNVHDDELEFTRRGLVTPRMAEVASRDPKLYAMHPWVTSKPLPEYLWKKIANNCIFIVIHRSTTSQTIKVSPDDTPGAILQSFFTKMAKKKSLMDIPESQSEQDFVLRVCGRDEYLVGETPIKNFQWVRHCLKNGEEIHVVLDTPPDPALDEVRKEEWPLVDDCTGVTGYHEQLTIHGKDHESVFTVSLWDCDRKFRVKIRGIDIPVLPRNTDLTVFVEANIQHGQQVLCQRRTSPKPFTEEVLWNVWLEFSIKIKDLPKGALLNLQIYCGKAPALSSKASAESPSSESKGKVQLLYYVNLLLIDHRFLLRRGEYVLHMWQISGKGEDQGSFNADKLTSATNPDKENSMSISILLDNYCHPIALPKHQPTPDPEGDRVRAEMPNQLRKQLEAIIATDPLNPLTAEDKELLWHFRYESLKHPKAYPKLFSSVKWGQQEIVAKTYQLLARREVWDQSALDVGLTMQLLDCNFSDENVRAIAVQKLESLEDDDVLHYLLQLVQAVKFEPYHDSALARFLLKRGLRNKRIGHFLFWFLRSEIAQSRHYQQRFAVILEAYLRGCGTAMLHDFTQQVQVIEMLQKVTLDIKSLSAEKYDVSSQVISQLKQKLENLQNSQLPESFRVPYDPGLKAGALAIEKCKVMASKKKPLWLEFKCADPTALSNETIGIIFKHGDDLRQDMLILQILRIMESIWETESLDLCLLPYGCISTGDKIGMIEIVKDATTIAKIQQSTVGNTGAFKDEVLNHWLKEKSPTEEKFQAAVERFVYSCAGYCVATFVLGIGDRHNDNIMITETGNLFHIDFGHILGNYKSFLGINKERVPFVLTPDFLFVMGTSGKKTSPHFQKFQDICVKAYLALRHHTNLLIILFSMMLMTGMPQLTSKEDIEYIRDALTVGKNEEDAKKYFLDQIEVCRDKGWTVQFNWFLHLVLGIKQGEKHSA

| Compound | IC50 (Human mTOR (FLAG-TOR)) [nM] | IC50 (PI3K-α) [nM] | IC50 (PI3K-γ; read-out: IC50 PI3Kγ) [nM] | IC50 ([1]; Homo sapiens, LNCaP, 72 h) [nM] | IC50 (PI3K-γ) [nM] | IC50 ([1]; MTS cell growth assay, three days after drug treatment) [nM] |
| --- | --- | --- | --- | --- | --- | --- |
| O=C(CN1CCCC1)Nc1ccc(NC(=O)Nc2ccc(-c3nc(N4CC5CCC(C4)O5)nc(N4CC5CCC(C4)O5)n3)cc2)cc1 [Example 353, N-[4-({[4-(4,6-di-8-oxa-3-azabicyclo[3.2.1]oct-3-yl-1,3,5-triazin-2-yl)phenyl]carbamoyl}amino)phenyl]-2-pyrrolidin-1-ylacetamide] | 0.22 | 8.5 | 501 | < 0.8 |  |  |
| O=C(Nc1ccc(-c2nc(N3CCSCC3)nc(N3C4CCC3COC4)n2)cc1)Nc1cccnc1 [Example 392, 1-(4-(4-(3-oxa-8-azabicyclo[3.2.1]octan-8-yl)-6-thiomorpholino-1,3,5-triazin-2-yl)phenyl)-3-(pyridin-3-yl)urea] | 5.5 | 1180 | 2780 | 480 |  |  |
| NC(=O)c1ccc(NC(=O)Nc2ccc(-c3nc(C4CCOCC4)nc(N4C5CCC4COC5)n3)cc2)cc1 [Example 454, 4-(3-(4-(4-(3-oxa-8-azabicyclo[3.2.1]octan-8-yl)-6-(tetrahydro-2H-pyran-4-yl)-1,3,5-triazin-2-yl)phenyl)ureido)benzamide] | 0.2 | 278 | 1490 | < 0.8 |  |  |
| 1-(4-(4-(3-oxa-8-azabicyclo[3.2.1]octan-8-yl)-6-(piperidin-4-ylamino)-1,3,5-triazin-2-yl)phenyl)-3-ethylurea [Example 364] | 3.5 | 1460 | 8040 |  |  | 70 |
| CN(C)CC(=O)Nc1ccc(NC(=O)Nc2ccc(-c3nc(N4C5CCC4COC5)nc(N4C5CCC4COC5)n3)cc2)cc1 [Example 373, N-(4-(3-(4-(4,6-di(3-oxa-8-azabicyclo[3.2.1]octan-8-yl)-1,3,5-triazin-2-yl)phenyl)ureido)phenyl)-2-(dimethylamino)acetamide] | 0.16 | 70 | 2960 | 1 |  |  |
| CNCCNC(=O)c1ccc(NC(=O)Nc2ccc(-c3nc(C4CCOCC4)nc(N4C5CCC4COC5)n3)cc2)cc1 [Example 458, 4-(3-(4-(4-(3-oxa-8-azabicyclo[3.2.1]octan-8-yl)-6-(tetrahydro-2H-pyran-4-yl)-1,3,5-triazin-2-yl)phenyl)ureido)-N-(2-(methylamino)ethyl)benzamide] | 0.2 | 33 | 512 | 8 |  |  |
| CC(C)Nc1nc(-c2ccc(NC(=O)Nc3ccc(N4CCNCC4)cc3)cc2)nc(N2C3CCC2COC3)n1 [Example 387, 1-(4-(4-(3-oxa-8-azabicyclo[3.2.1]octan-8-yl)-6-(isopropylamino)-1,3,5-triazin-2-yl)phenyl)-3-(4-(piperazin-1-yl)phenyl)urea] | 3.2 | 3420 | 2860 | 70 |  |  |
| O=C(Nc1ccc(-c2nc(N3CC4CCC(C3)O4)nc(N3CC4CCC(C3)O4)n2)cc1)OCCO [Example 27, 2-hydroxyethyl[4-(4,6-di-8-oxa-3-azabicyclo[3.2.1]oct-3-yl-1,3,5-triazin-2-yl)phenyl]carbamate] | 4.15 | 1230 |  | 350 | > 10000 |  |
| O=C(Nc1ccncc1)Nc1ccc(-c2nc(N3CCC(NCCN4CCOCC4)CC3)nc(N3CC4CCC(C3)O4)n2)cc1 [Example 124, 1-(4-(4-(8-oxa-3-azabicyclo[3.2.1]octan-3-yl)-6-(4-(2-morpholinoethylamino)piperidin-1-yl)-1,3,5-triazin-2-yl)phenyl)-3-(pyridin-4-yl)urea] | 155 | 1650 | 9650 | 1950 |  |  |
| C[C@@H]1COCCN1c1nc(-c2ccc(NC(=O)Nc3ccc(CN(C)C)cc3)cc2)nc(N2CCOC[C@H]2C)n1 [Example 401, 1-(4-(4,6-bis((R)-3-methylmorpholino)-1,3,5-triazin-2-yl)phenyl)-3-(4-((dimethylamino)methyl)phenyl)urea] | 2 | 413 | 3250 | 21 |  |  |
| CC(C)Nc1nc(-c2ccc(NC(=O)Nc3ccc(CN4CCCC4)cc3)cc2)nc(N2C3CCC2COC3)n1 [Example 383, 1-(4-(4-(3-oxa-8-azabicyclo[3.2.1]octan-8-yl)-6-(isopropylamino)-1,3,5-triazin-2-yl)phenyl)-3-(4-(pyrrolidin-1-ylmethyl)phenyl)urea] | 6.1 | 2980 | 3610 | 150 |  |  |
| C[C@@H]1COCCN1c1nc(-c2ccc(NC(=O)Nc3ccc(CN4CCN(C)CC4)cc3)cc2)nc(N2C[C@@H]3C[C@H]2CO3)n1 [Example 413, 1-(4-(4-((1S,4S)-2-oxa-5-azabicyclo[2.2.1]heptan-5-yl)-6-((R)-3-methylmorpholino)-1,3,5-triazin-2-yl)phenyl)-3-(4-((4-methylpiperazin-1-yl)methyl)phenyl)urea] | 9.2 | 1520 |  | 150 | > 10000 |  |
| CN1CCN(c2ccc(NC(=O)Nc3ccc(-c4nc(-c5ccc(NC(=O)Nc6ccncc6)cc5)nc(N5CC6CCC(C5)O6)n4)cc3)cc2)CC1 [Example 148, 1-[4-(4-methylpiperazin-1-yl)phenyl]-3-{4-[4-(8-oxa-3-azabicyclo[3.2.1]oct-3-yl)-6-{4-[(pyridin-4-ylcarbamoyl)amino]phenyl}-1,3,5-triazin-2-yl]phenyl}urea] | 8 | 300 | 620 | 680 |  |  |
| C[C@@H]1COCCN1c1nc(-c2ccc(NC(=O)Nc3ccc(N4CCC(N(C)C)CC4)cc3)cc2)nc(C2CCOCC2)n1 [Example 430, (R)-1-(4-(4-(dimethylamino)piperidin-1-yl)phenyl)-3-(4-(4-(3-methylmorpholino)-6-(tetrahydro-2H-pyran-4-yl)-1,3,5-triazin-2-yl)phenyl)urea] | 1.7 | 402 | 484 | 16 |  |  |

Second part, led by results:

| IC50 (Human mTOR (FLAG-TOR)) [nM] | IC50 (PI3K-α) [nM] | IC50 (PI3K-γ; read-out: IC50 PI3Kγ) [nM] | IC50 ([1]; Homo sapiens, LNCaP, 72 h) [nM] | IC50 (PI3K-γ) [nM] | Compound | IC50 ([1]; MTS cell growth assay, three days after drug treatment) [nM] |
| --- | --- | --- | --- | --- | --- | --- |
| 64 | 275 | 3820 | 22000 |  | O=C(Nc1ccc(-c2nc(NC3CNC3)nc(N3CC4CCC(C3)O4)n2)cc1)Nc1cccnc1 [Example 154, 1-{4-[4-(azetidin-3-ylamino)-6-(8-oxa-3-azabicyclo[3.2.1]oct-3-yl)-1,3,5-triazin-2-yl]phenyl}-3-pyridin-3-ylurea] |  |
| 0.49 | 142 | 3520 | 45 |  | O=C(Nc1ccncc1)Nc1ccc(-c2nc(N3CC4CCC(C3)O4)nc(N3CC4CCC(C3)O4)n2)cc1 [Example 31, 1-[4-(4,6-di-8-oxa-3-azabicyclo[3.2.1]oct-3-yl-1,3,5-triazin-2-yl)phenyl]-3-pyridin-4-ylurea] |  |
| 3.5 | 275 | 2830 | 40 |  | CC(C)Nc1nc(-c2ccc(NC(=O)Nc3ccc(OCCN(C)C)cc3)cc2)nc(N2CC3CCC(C2)O3)n1 [Example 220, 1-{4-[2-(dimethylamino)ethoxy]phenyl}-3-(4-{4-[(1-methylethyl)amino]-6-(8-oxa-3-azabicyclo[3.2.1]oct-3-yl)-1,3,5-triazin-2-yl}phenyl)urea] |  |
| 73.5 | 1460 | 2960 | 1900 |  | O=C(Nc1ccncc1)Nc1ccc(-c2nc(N3CCN(Cc4ccccc4)CC3)nc(N3CC4CCC(C3)O4)n2)cc1 [Example 109, 1-{4-[4-(4-benzylpiperazin-1-yl)-6-(8-oxa-3-azabicyclo[3.2.1]oct-3-yl)-1,3,5-triazin-2-yl]phenyl}-3-pyridin-4-ylurea] |  |
| 8.3 | 408 | 7960 | 5000 |  | O=C(Nc1ccc(-c2nc(NCC3CCNCC3)nc(N3CC4CCC(C3)O4)n2)cc1)Nc1cccnc1 [Example 169, 1-(4-{4-(8-oxa-3-azabicyclo[3.2.1]oct-3-yl)-6-[(piperidin-4-ylmethyl)amino]-1,3,5-triazin-2-yl}phenyl)-3-pyridin-3-ylurea] |  |
| 0.9 | 417 | 4730 | 380 |  | C[C@H](CO)Nc1nc(-c2ccc(NC(=O)Nc3cccnc3)cc2)nc(N2CC3CCC(C2)O3)n1 [Example 260, 1-{4-[4-{[(1R)-2-hydroxy-1-methylethyl]amino}-6-(8-oxa-3-azabicyclo[3.2.1]oct-3-yl)-1,3,5-triazin-2-yl]phenyl}-3-pyridin-3-ylurea] |  |
| 3.2 | 109 | 2000 | 200 |  | O=C1CCN(c2nc(-c3ccc(NC(=O)Nc4ccncc4)cc3)nc(N3CC4CCC(C3)O4)n2)CC1 [Example 115, 1-(4-(4-(8-oxa-3-azabicyclo[3.2.1]octan-3-yl)-6-(4-oxopiperidin-1-yl)-1,3,5-triazin-2-yl)phenyl)-3-(pyridin-4-yl)urea] |  |
| 0.31 | 158 | 2530 | 30 |  | CC(C)(CO)Nc1nc(-c2ccc(NC(=O)Nc3cccnc3)cc2)nc(N2CC3CCC(C2)O3)n1 [Example 261, 1-(4-{4-[(2-hydroxy-1,1-dimethylethyl)amino]-6-(8-oxa-3-azabicyclo[3.2.1]oct-3-yl)-1,3,5-triazin-2-yl}phenyl)-3-pyridin-3-ylurea] |  |
| 2.1 | 861 | 727 | 4.25 |  | COCC(COC)Oc1nc(-c2ccc(NC(=O)Nc3ccncc3)cc2)nc(N2CC3CCC(C2)O3)n1 [Example 174, 1-(4-{4-[2-methoxy-1-(methoxymethyl)ethoxy]-6-(8-oxa-3-azabicyclo[3.2.1]oct-3-yl)-1,3,5-triazin-2-yl}phenyl)-3-pyridin-4-ylurea] |  |
